Measurements taken from patent EP1439177B1, “Antiviral activity and resolution of 2-hydroxymethyl-5-(5-fluorocytosin-1-yl)-1,3-oxathiolane” (Emory University, priority 1991, dated 1992).
Values joined by “and” are separate entries in the source; they are usually repeats but may differ in a detail not shown here. Identical values can stand only once. Like-named read-outs stand apart in the source and are kept apart here.

What was measured:
[1] = system: uninfected human PBM cells; assay: Growth inhibition of mitogen-stimulated uninfected human PBM cells, trypan blue exclusion; type: cell-based; settings: uninfected human PBM cells, 6 days; error estimated at ±10%; read-out: Cytotoxicity IC50
HIV-1 (strain LAV) = assay: microbe, parasite or virus in culture; type: cell-based; settings: Human immunodeficiency virus 1, PBMC; for inhibition at 0.001 µM / inhibition at 0.005 µM / inhibition at 0.01 µM / inhibition at 0.05 µM / inhibition at 0.1 µM / inhibition at 0.5 µM: read-out: % Inhibition (Corrected)
Text: It is often desirable to screen a number of racemic mixtures of nucleosides as a preliminary step to determine which warrant further resolution into enantiomerically enriched components and further evaluation of antiviral activity. The ability of nucleosides to inhibit HIV can be measured by various experimental techniques. The technique used herein, and described in detail below, measures the inhibition of viral replication in phytohemagglutinin (PHA) stimulated human peripheral blood mononuclear (PBM) cells infected with HIV-1 (strain LAV). The amount of virus produced is determined by measuring the virus-coded reverse transcriptase enzyme. The amount of enzyme produced is proportional to the amount of virus produced.
• A. Three-day-old phytohemagglutinin-stimulated PBM cells (10^6 cells/ml) from hepatitis B and HIV-1 seronegative healthy donors were infected with HIV-1 (strain LAV) at a concentration of about 100 times the 50% tissue culture infectious dose (TICD 50) per ml and cultured in the presence and absence of various concentrations of antiviral compounds. • B. Approximately one hour after infection, the medium, with the compound to be tested (2 times the final concentration in medium) or without compound, was added to the flasks (5 ml; final volume 10 ml). AZT was used as a positive control. • C. The cells were exposed to the virus (about 2 x 10^5 dpm/ml, as determined by reverse transcriptase assay) and then placed in a CO2 incubator. HIV-1 (strain LAV) was obtained from the Center for Disease Control, Atlanta, Georgia. The methods used for culturing the PBM cells, harvesting the virus and determining the reverse transcriptase activity were those described by McDougal et al. (J. Immun. Meth. 76, 171-183, 1985) and Spira et al. (J. Clin. Meth. 25, 97-99, 1987), except that fungizone was not included in the medium (see Schinazi, et al., Antimicrob. Agents Chemother. 32, 1784-1787 (1988); Id., 34:1061-1067 (1990)). • D. On day 6, the cells and supernatant were transferred to a 15 ml tube and centrifuged at about 900 g for 10 minutes. Five ml of supernatant were removed and the virus was concentrated by centrifugation at 40,000 rpm for 30 minutes (Beckman 70.1 Ti rotor). The solubilized virus pellet was processed for determination of the levels of reverse transcriptase. Results are expressed in dpm/ml of sampled supernatant. Virus from smaller volumes of supernatant (1 ml) can also be concentrated by centrifugation prior to solubilization and determination of reverse transcriptase levels.

[2] = Growth inhibition of mitogen-stimulated uninfected human PBM cells, trypan blue exclusion; type: cell-based; settings: human, pbm cells
HIV-2 = assay: microbe, parasite or virus in culture; settings: Human immunodeficiency virus 2, PBMC
Method: Cell lines were obtained from either human donors, AIDS Research and Reference Reagent Program, NIH, Rockville, Maryland, ATCC, or the Red Cross. The CEM thymidine kinase deficient cells were prepared by sequential passage of CEM cells in the presence of 5-bromo-2'-deoxyuridine.

HBV = settings: for INT[…] DNA RI: HBV DNA replication intermediates; for inhibition of the replication of HBV: at the tested levels (Table 7, 10 µM)
Method: A summary and description of the assay for antiviral effects in this culture system and the analysis of HBV DNA has been described (Korba and Milman, 1991, Antiviral Res., 15:217). The antiviral evaluations were performed on two separate passages of cells. All wells, in all plates, were seeded at the same density and at the same time.
Due to the inherent variations in the levels of both intracellular and extracellular HBV DNA, only depressions greater than 3.5-fold (for HBV virion DNA) or 3.0-fold (for HBV DNA replication intermediates) from the average levels for these HBV DNA forms in untreated cells are considered to be statistically significant [P<0.05]. The levels of integrated HBV DNA in each cellular DNA preparation (which remain constant on a per cell basis in these experiments) were used to calculate the levels of intracellular HBV DNA forms, thereby ensuring that equal amounts of cellular DNA were compared between separate samples.

[3] = Toxicity analysis in 2.2.15 cells, neutral red dye uptake; type: cell-based, human; settings: human, 2.2.15 cells
Method: (§1) Toxicity analyses were performed to assess whether any observed antiviral effects were due to a general effect on cell viability. The method used herein was the measurement of the uptake of neutral red dye, a standard and widely used assay for cell viability in a variety of virus-host systems, including HSV and HIV. Toxicity analyses were performed in 96-well flat bottomed tissue culture plates. Cells for the toxicity analyses were cultured and treated with test compounds with the same schedule as described for the antiviral evaluations below. Each compound was tested at 4 concentrations, each in triplicate cultures (wells "A", "B", and "C"). Uptake of neutral red dye was used to determine the relative level of toxicity. The absorbance of internalized dye at 510 nm (Asin) was used for the quantitative analysis. Values are presented as a percentage of the average Asin values in 9 separate cultures of untreated cells maintained on the same 96-well plate as the test compounds. Dye uptake in the 9 control cultures on plate 5 ranged from 91.6% to 110.4%, and on plate 6 from 96.6% to 109%.

2.2.15 cells = assay: as above; type: cell-based, human; settings: 330 µM
Method: as §1

[4] = system: granulocyte-macrophage precursor cells; settings: compared with the (+)-enantiomer and AZT; Figure 12
HIV = assay: microbe, parasite or virus in culture; type: cell-based; settings: Human immunodeficiency virus 1; MT4 system
[5] = read-out: DYE UPTAKE (% OF CONTROL) WELL A
[6] = read-out: DYE UPTAKE (% OF CONTROL) WELL C
[7] = read-out: DYE UPTAKE (% OF CONTROL) WELLB

Cc1cn(C2CSC(CO)O2)c(=O)[nH]c1=O (stereo not shown) [DLS-010]
CC50 [1]: > 100 µM

Nc1nc(=O)n([C@H]2CS[C@@H](CO)O2)cc1Br [DLS-021]
CC50 [1]: > 100 µM

Nc1nc(=O)n([C@H]2CS[C@@H](CO)O2)cc1I [DLS-026]
CC50 [1]: > 100 µM

Nc1nc(=O)n([C@@H]2CS[C@H](CO)O2)cc1C(F)(F)F [DLS-053]
CC50 [1]: > 100 µM

Nc1nc(=O)n([C@@H]2CS[C@H](CO)O2)cc1F (single isomer, unassigned) [(-)-FTC, (-)-β-L-2-hydroxymthyl-5-(5-fluorocytosin-1-yl)-1,3-oxathiolane]
inhibition at 0.001 µM (HIV-1 (strain LAV)): 23.8%
inhibition at 0.005 µM (HIV-1 (strain LAV)): 43.3%
inhibition at 0.01 µM (HIV-1 (strain LAV)): 24.8%
inhibition at 0.05 µM (HIV-1 (strain LAV)): 76.2%
inhibition at 0.1 µM (HIV-1 (strain LAV)): 93.5%
inhibition at 0.5 µM (HIV-1 (strain LAV)): 97.6%
EC50 (HIV-1 (strain LAV); read-out: Antiviral EC50): 0.008 µM
EC50 (HIV-1 (strain LAV); read-out: EC50): 0.0077 µM
EC50 (HIV-1 (strain LAV); read-out: EC50:µM): 0.02 µM
CC50 at 144 h [2]: > 100 µM
EC50 (HIV-2): 0.0007 µM
HBV VIRION DNA DAY 0 (HBV; 0.25 µM, replicate wells): 89 pg/ml CULTURE MEDIUM
HBV VIRION DNA DAY 4 (HBV; 0.25 µM, replicate wells): 15 pg/ml CULTURE MEDIUM
INT[…] DNA RI (HBV; 1 µM, 24 hours following the 9th day of treatment): 2 pg/µg CELL DNA and 3 pg/µg CELL DNA and 4 pg/µg CELL DNA
HBV VIRION DNA DAY 0 (HBV; 1 µM, replicate wells): 89 pg/ml CULTURE MEDIUM
HBV VIRION DNA DAY 4 (HBV; 1 µM, replicate wells): 15 pg/ml CULTURE MEDIUM and 22 pg/ml CULTURE MEDIUM
INT[…] DNA MONO. (HBV; 1 µM, episomal 3.2 kb HBV genomes, 24 hours following the 9th day of treatment): 1.7 pg/µg CELL DNA and 1.4 pg/µg CELL DNA
INT[…] DNA RI (HBV; 4 µM, 24 hours following the 9th day of treatment): 1 pg/µg CELL DNA and 2 pg/µg CELL DNA
inhibition of the replication of HBV (HBV): significantly inhibited
viability at 10 µM [3, 5]: 94.3%
viability at 10 µM [3, 6]: 92.2%
viability at 10 µM [3, 7]: 94.9%
viability at 30 µM [3, 5]: 98.7%
viability at 30 µM [3, 6]: 96.4%
viability at 30 µM [3, 7]: 94.3%
viability at 100 µM [3, 5]: 64.1%
viability at 100 µM [3, 6]: 77.6%
viability at 100 µM [3, 7]: 66.6%
viability at 300 µM [3, 5]: 53%
viability at 300 µM [3, 6]: 51.5%
viability at 300 µM [3, 7]: 51.1%
toxicity at the highest concentration used for the toxicity tests (2.2.15 cells): appeared to be toxic
toxicity (IC50) on colony formation [4]: less toxic

CCCC(=O)OC[C@@H]1O[C@H](n2cc(F)c(N)nc2=O)CS1 (racemic) [5'-O-butyrate ester of (±)-FTC]
EC50 (HIV-1 (strain LAV)): 0.0017 µM
EC50 (HIV): 0.04 µM

Nc1nc(=O)n([C@H]2CS[C@@H](CO)O2)cc1F [(+)-FTC, (+)-β-D-2-hydroxymethyl-5-(5-fluorocytosin-1-yl)-1,3-oxathiolane]
inhibition at 0.001 µM (HIV-1 (strain LAV)): 3.8%
inhibition at 0.005 µM (HIV-1 (strain LAV)): -10.6%
inhibition at 0.01 µM (HIV-1 (strain LAV)): -1.8%
inhibition at 0.05 µM (HIV-1 (strain LAV)): 11.8%
inhibition at 0.1 µM (HIV-1 (strain LAV)): 12.7%
inhibition at 0.5 µM (HIV-1 (strain LAV)): 71.4%
EC50 (HIV-1 (strain LAV); read-out: Antiviral EC50): 0.84 µM
EC50 (HIV-1 (strain LAV); read-out: EC50): 0.84 µM
EC50 (HIV-1 (strain LAV); read-out: EC50:µM): 0.28 µM
CC50 at 144 h [2]: > 100 µM
EC50 (HIV-2): 0.026 µM
HBV VIRION DNA DAY 0 (HBV; 10 µM, replicate wells): 58 pg/ml Culture Medium
HBV Virion DNA DAY 9 (HBV; 10 µM, day 9, sensitivity cutoff 0.1 pg/ml, replicate wells): 0.1 pg/ml Culture Medium
inhibition of the replication of HBV (HBV): significantly inhibited
viability at 10 µM [3, 5]: 90.9%
viability at 10 µM [3, 6]: 90.5%
viability at 10 µM [3, 7]: 99.4%
viability at 30 µM [3, 5]: 81.1%
viability at 30 µM [3, 6]: 88.1%
viability at 30 µM [3, 7]: 88.3%
viability at 100 µM [3, 5]: 77.7%
viability at 100 µM [3, 6]: 72.1%
viability at 100 µM [3, 7]: 66.3%
viability at 300 µM [3, 5]: 43.4%
viability at 300 µM [3, 6]: 58.5%
viability at 300 µM [3, 7]: 56.7%
toxicity at the highest concentration used for the toxicity tests (2.2.15 cells): appeared to be toxic

O=c1[nH]c(=O)n([C@H]2CS[C@@H](CO)O2)cc1Cl [DLS-028]
CC50 [1]: > 100 µM

CC(=O)Nc1nc(=O)n([C@@H]2CS[C@H](CO)O2)cc1F (racemic) [N^4-acetyl derivative of (±)-FTC]
EC50 (HIV-1 (strain LAV)): 0.0028 µM

Cc1cn([C@H]2CS[C@@H](CO)O2)c(=O)nc1N [DLS-011]
CC50 [1]: > 100 µM

Nc1nc(=O)n([C@H]2CS[C@@H](CO)O2)cc1Cl [DLS-023]
CC50 [1]: > 100 µM
